Data as given in US7592345B2, “Piperazine and [1,4]diazepan derivatives as NK antagonists” (Hoffmann-La Roche Inc., priority 2007, dated 2009).

Target: T1, recombinant human NK3 receptor (Homo sapiens, UniProt P29371)
T1 construct: expressed in transfected cells; host or cells: HEK293 cells (transient expression), membranes
T1 sequence (P29371 1-465): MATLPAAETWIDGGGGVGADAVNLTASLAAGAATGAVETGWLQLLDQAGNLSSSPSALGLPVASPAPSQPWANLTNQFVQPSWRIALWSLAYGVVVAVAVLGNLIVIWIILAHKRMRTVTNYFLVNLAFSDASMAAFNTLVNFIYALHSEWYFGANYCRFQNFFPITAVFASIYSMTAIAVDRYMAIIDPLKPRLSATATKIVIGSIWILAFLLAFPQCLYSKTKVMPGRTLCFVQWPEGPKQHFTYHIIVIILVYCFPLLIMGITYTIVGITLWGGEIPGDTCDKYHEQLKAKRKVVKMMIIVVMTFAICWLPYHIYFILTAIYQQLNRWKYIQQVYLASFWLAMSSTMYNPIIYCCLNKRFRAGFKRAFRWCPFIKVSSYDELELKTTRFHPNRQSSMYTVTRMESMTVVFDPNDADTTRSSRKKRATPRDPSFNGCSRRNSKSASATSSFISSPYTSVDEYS
Experiment: [3H]SR142801 competition binding assay
Settings: [3H]SR142801, membranes from HEK293 cells transiently expressing recombinant human NK3 receptor; read-out: hNK3 Ki
Experimental: [^3H]SR142801 Competition Binding Assay
hNK3 receptor binding experiment were performed using [^3H]SR142801 (Catalog No. TRK1035, specific activity: 74.0 Ci/mmol, Amersham, GE Healthcare UK limited, Buckinghamshire, UK) and membrane isolated from HEK293 cells transiently expressing recombinant human NK3 receptor. After thawing, the membrane homogenates were centrifuged at 48,000×g for 10 min at 4° C., the pellets were resuspended in the 50 mM Tris-HCl, 4 mM MnCl2, 1 μM phosphoramidon, 0.1% BSA binding buffer at pH 7.4 to a final assay concentration of 5 μg protein/well. For inhibition experiments, membranes were incubated with [^3H]SR142801 at a concentration equal to KD value of radioligand and 10 concentrations of the inhibitory compound (0.0003-10 μM) (in a total reaction volume of 500 μl) for 75 min at room temperature (RT). At the end of the incubation, membranes were filtered onto unitfilter (96-well white microplate with bonded GF/C filter preincubated 1 h in 0.3% PEI+0.3% BSA, Packard BioScience, Meriden, Conn.) with a Filtermate 196 harvester (Packard BioScience) and washed 4 times with ice-cold 50 mM Tris-HCl, pH 7.4 buffer. Nonspecific binding was measured in the presence of 10 μM SB222200 for both radioligands. The radioactivity on the filter was counted (5 min) on a Packard Top-count microplate scintillation counter with quenching correction after addition of 45 μl of microscint 40 (Canberra Packard S. A., Zürich, Switzerland) and shaking for 1 h. Inhibition curves were fitted according to the Hill equation: y=100/(1+(x/IC50)^nH), where nH=slope factor using Excel-fit 4 software (Microsoft). IC50 values were derived from the inhibition curve and the affinity constant (Ki) values were calculated using the Cheng-Prussoff equation Ki=IC50/(1+[L]/KD) where [L] is the concentration of radioligand and KD is its dissociation constant at the receptor, derived from the saturation isotherm. All experiments were performed in duplicate and the mean±standard error (SEM) of the individual Ki values was calculated.

Row | SMILES | Ki [µM]
1 | CN(Cc1ccc(-c2ccncc2)cc1)C(=O)C(C)(CCN1CCN(S(C)(=O)=O)CC1)c1ccc(Cl)c(Cl)c1 (stereo not shown) [Example 23, 2-(3,4-Dichloro-phenyl)-4-(4-methanesulfonyl-piperazin-1-yl)-2,N-dimethyl-N-(4-pyridin-4-yl-benzyl)-butyramide] | 0.201
2 | CN(Cc1cccc(F)c1)C(=O)C(C)(CCN1CCN(S(C)(=O)=O)CC1)c1ccc(Cl)c(Cl)c1 (stereo not shown) [Example 24, 2-(3,4-Dichloro-phenyl)-N-(3-fluoro-benzyl)-4-(4-methanesulfonyl-piperazin-1-yl)-2,N-dimethyl-butyramide] | 0.224
3 | COc1ccc(CN(C)C(=O)C(C)(CCN2CCN(S(C)(=O)=O)CC2)c2ccc(Cl)c(Cl)c2)cc1F (stereo not shown) [Example 25, 2-(3,4-Dichloro-phenyl)-N-(3-fluoro-4-methoxy-benzyl)-4-(4-methanesulfonyl-piperazin-1-yl)-2,N-dimethyl-butyramide] | 0.134
4 | COc1cc(CN(C)C(=O)C(C)(CCN2CCN(S(C)(=O)=O)CC2)c2ccc(Cl)c(Cl)c2)ccc1OC(F)F (stereo not shown) [Example 26, 2-(3,4-Dichloro-phenyl)-N-(4-difluoromethoxy-3-methoxy-benzyl)-4-(4-methanesulfonyl-piperazin-1-yl)-2,N-dimethyl-butyramide] | 0.275
5 | CC(CCN1CCN(S(C)(=O)=O)CC1)(C(=O)NCc1ccc(Cl)c(F)c1)c1ccc(Cl)c(Cl)c1 (stereo not shown) [Example 30, N-(4-Chloro-3-fluoro-benzyl)-2-(3,4-dichloro-phenyl)-4-(4-methanesulfonyl-piperazin-1-yl)-2-methyl-butyramide] | 0.133
6 | COc1ccc(CN(C)C(=O)C(C)(CCN2CCN(S(C)(=O)=O)[C@H](C)C2)c2ccc(Cl)c(Cl)c2)cc1F (stereo partly drawn) [Example 31, 2-(3,4-Dichloro-phenyl)-N-(3-fluoro-4-methoxy-benzyl)-4-((R)-4-methanesulfonyl-3-methyl-piperazin-1-yl)-2,N-dimethyl-butyramide] | 0.109
7 | COc1cc(CN(C)C(=O)C(C)(CCN2CCN(S(C)(=O)=O)[C@H](C)C2)c2ccc(Cl)c(Cl)c2)ccc1OC(F)F (stereo partly drawn) [Example 35, 2-(3,4-Dichloro-phenyl)-N-(4-difluoromethoxy-3-methoxy-benzyl)-4-((R)-4-methanesulfonyl-3-methyl-piperazin-1-yl)-2,N-dimethyl-butyramide] | 0.216
8 | C[C@@H]1CN(CCC(C)(C(=O)NCc2ccc(N(C)C)cc2)c2ccc(Cl)c(Cl)c2)CCN1S(C)(=O)=O (stereo partly drawn) [Example 37, 2-(3,4-Dichloro-phenyl)-N-(4-dimethylamino-benzyl)-4-((R)-4-methanesulfonyl-3-methyl-piperazin-1-yl)-2-methyl-butyramide] | 0.485
9 | C[C@@H]1CN(CCC(C)(C(=O)NCc2ccc3nccnc3c2)c2ccc(Cl)c(Cl)c2)CCN1S(C)(=O)=O (stereo partly drawn) [Example 38, 2-(3,4-Dichloro-phenyl)-4-((R)-4-methanesulfonyl-3-methyl-piperazin-1-yl)-2-methyl-N-quinoxalin-6-ylmethyl-butyramide] | 0.545

Compounds with a lower Ki, results first:

Row | Ki [µM] | SMILES
10 | 0.0999 | C[C@@H]1CN(CCC(C)(C(=O)NCc2cccc(OC(F)F)c2)c2ccc(Cl)c(Cl)c2)CCN1S(C)(=O)=O (stereo partly drawn) [Example 43, 2-(3,4-Dichloro-phenyl)-N-(3-difluoromethoxy-benzyl)-4-((R)-4-methanesulfonyl-3-methyl-piperazin-1-yl)-2-methyl-butyramide]
11 | 0.0984 | CC(CCN1CCN(S(C)(=O)=O)CC1)(C(=O)NCc1ccc(Cl)cc1)c1ccc(Cl)c(Cl)c1 (stereo not shown) [Example 29, N-(4-Chloro-benzyl)-2-(3,4-dichloro-phenyl)-4-(4-methanesulfonyl-piperazin-1-yl)-2-methyl-butyramide]
12 | 0.082 | CC(CCN1CCN(S(C)(=O)=O)CC1)(C(=O)NCc1ccc(C(F)(F)F)cc1)c1ccc(Cl)c(Cl)c1 (stereo not shown) [Example 27, 2-(3,4-Dichloro-phenyl)-4-(4-methanesulfonyl-piperazin-1-yl)-2-methyl-N-(4-trifluoromethyl-benzyl)-butyramide]
13 | 0.0774 | Cc1ccc(CN(C)C(=O)C(C)(CCN2CCN(S(C)(=O)=O)CC2)c2ccc(Cl)c(Cl)c2)cc1 (stereo not shown) [Example 22, 2-(3,4-Dichloro-phenyl)-4-(4-methanesulfonyl-piperazin-1-yl)-2,N-dimethyl-N-(4-methyl-benzyl)-butyramide]
14 | 0.0508 | Cc1ccc(CN(C)C(=O)C(C)(CCN2CCN(S(C)(=O)=O)[C@H](C)C2)c2ccc(Cl)c(Cl)c2)cc1 (stereo partly drawn) [Example 36, 2-(3,4-Dichloro-phenyl)-4-((R)-4-methanesulfonyl-3-methyl-piperazin-1-yl)-2,N-dimethyl-N-(4-methyl-benzyl)-butyramide]
15 | 0.0481 | C[C@@H]1CN(CCC(C)(C(=O)NCc2cc(C(F)(F)F)cc(C(F)(F)F)c2)c2ccc(Cl)c(Cl)c2)CCN1S(C)(=O)=O (stereo partly drawn) [Example 34, N-(3,5-Bis-trifluoromethyl-benzyl)-2-(3,4-dichloro-phenyl)-4-((R)-4-methanesulfonyl-3-methyl-piperazin-1-yl)-2-methyl-butyramide]
16 | 0.045 | CN(Cc1ccc(C(F)(F)F)cc1)C(=O)C(C)(CCN1CCN(S(C)(=O)=O)CC1)c1ccc(Cl)c(Cl)c1 (stereo not shown) [Example 28, 2-(3,4-Dichloro-phenyl)-4-(4-methanesulfonyl-piperazin-1-yl)-2,N-dimethyl-N-(4-trifluoromethyl-benzyl)-butyramide]
17 | 0.0168 | COc1ccc(C(NC(=O)C(C)(CCN2CCN(S(C)(=O)=O)[C@H](C)C2)c2ccc(Cl)c(Cl)c2)C2CC2)cc1 (stereo partly drawn) [Example 32, N-[Cyclopropyl-(4-methoxy-phenyl)-methyl]-2-(3,4-dichloro-phenyl)-4-((R)-4-methanesulfonyl-3-methyl-piperazin-1-yl)-2-methyl-butyramide]
18 | 0.0167 | C[C@@H]1CN(CCC(C)(C(=O)N(C)Cc2ccc(C(F)(F)F)c(F)c2)c2ccc(Cl)c(Cl)c2)CCN1S(C)(=O)=O (stereo partly drawn) [Example 40, 2-(3,4-Dichloro-phenyl)-N-(3-fluoro-4-trifluoromethyl-benzyl)-4-((R)-4-methanesulfonyl-3-methyl-piperazin-1-yl)-2,N-dimethyl-butyramide]
19 | 0.0158 | C[C@@H]1CN(CCC(C)(C(=O)N(C)Cc2ccc(F)c(C(F)(F)F)c2)c2ccc(Cl)c(Cl)c2)CCN1S(C)(=O)=O (stereo partly drawn) [Example 33, 2-(3,4-Dichloro-phenyl)-N-(4-fluoro-3-trifluoromethyl-benzyl)-4-((R)-4-methanesulfonyl-3-methyl-piperazin-1-yl)-2,N-dimethyl-butyramide]
20 | 0.0133 | C[C@@H]1CN(CCC(C)(C(=O)N(C)Cc2ccc(Cl)c(Cl)c2)c2ccc(Cl)c(Cl)c2)CCN1S(C)(=O)=O (stereo partly drawn) [Example 41, N-(3,4-Dichloro-benzyl)-2-(3,4-dichloro-phenyl)-4-((R)-4-methanesulfonyl-3-methyl-piperazin-1-yl)-2,N-dimethyl-butyramide]
21 | 0.0126 | C[C@@H]1CN(CCC(C)(C(=O)N(C)Cc2ccc(Cl)c(C(F)(F)F)c2)c2ccc(Cl)c(Cl)c2)CCN1S(C)(=O)=O (stereo partly drawn) [Example 39, N-(4-Chloro-3-trifluoromethyl-benzyl)-2-(3,4-dichloro-phenyl)-4-((R)-4-methanesulfonyl-3-methyl-piperazin-1-yl)-2,N-dimethyl-butyramide]
22 | 0.0057 | C[C@@H]1CN(CCC(C)(C(=O)NCc2ccc(Cl)c(Cl)c2)c2ccc(Cl)c(Cl)c2)CCN1S(C)(=O)=O (stereo partly drawn) [Example 42, N-(3,4-Dichloro-benzyl)-2-(3,4-dichloro-phenyl)-4-((R)-4-methanesulfonyl-3-methyl-piperazin-1-yl)-2-methyl-butyramide]
